ChEMBL document CHEMBL1201862, “PubChem BioAssay data set” (2004)
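Results reflect a 48-hour exposure of cells in 96-well plates to compound at five concentrations. Here, GI50 denotes the concentration required for 50% inhibition of growth.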 Calls of active or inactive are those of the source. No stated cut-off is given here; in the data, active = GI50 up to about 1.1 µM and inactive = higher.

Columns and labels:
Experiment in all cases: growth of human tumour cells (NCI), 48 h
NCI-H522 = tested on: NCI-H522
786-0 = tested on: 786-0
SNB-75 = tested on: SNB-75
HOP-92 = tested on: HOP-92
M14 = tested on: M14
HL-60 = tested on: HL-60
UO-31 = tested on: UO-31
ACHN = tested on: ACHN
MOLT-4 = tested on: MOLT-4
SW-620 = tested on: SW-620
RXF 393 = tested on: RXF 393
TK-10 = tested on: TK-10
MDA-MB-231 = tested on: MDA-MB-231
HOP-62 = tested on: HOP-62
EKVX = tested on: EKVX
K562 = tested on: K562
U-251 = tested on: U-251
MDA-N = tested on: MDA-N
DU-145 = tested on: DU-145
SK-OV-3 = tested on: SK-OV-3

SMILES	GI50 (NCI-H522)	GI50 (786-0)	GI50 (SNB-75)	GI50 (HOP-92)	GI50 (M14)	GI50 (HL-60)	GI50 (UO-31)	GI50 (ACHN)	GI50 (MOLT-4)	GI50 (SW-620)	GI50 (RXF 393)	GI50 (TK-10)	GI50 (MDA-MB-231)	GI50 (HOP-62)	GI50 (EKVX)	GI50 (K562)	GI50 (U-251)	GI50 (MDA-N)	GI50 (DU-145)	GI50 (SK-OV-3)
O=S(=O)(O)c1ccc(/N=N/c2ccc(/N=N/c3c(O)ccc4ccccc34)cc2)cc1	> 100 µM (inactive)	> 100 µM (inactive)	> 100 µM (inactive)	> 100 µM (inactive)	> 100 µM (inactive)	0.893 µM (active)	> 100 µM (inactive)	> 100 µM (inactive)	> 100 µM (inactive)	> 100 µM (inactive)	> 100 µM (inactive)	> 100 µM (inactive)	> 100 µM (inactive)	> 100 µM (inactive)	> 100 µM (inactive)	> 100 µM (inactive)	> 100 µM (inactive)	> 100 µM (inactive)	> 89.3 µM (inactive)	> 100 µM (inactive)
C/C(=C\[C@H]1C[C@@H]([C@@H]2CC[C@]34C[C@]23C=C[C@@H]2[C@@]3(C)CC=C5C[C@@H](c6ccccc6)OC[C@]5(C)[C@@H]3C[C@@H](O)[C@]24C)C(=O)O1)CO [DICHAPETALIN A]	2.88 µM (inactive)	4.38 µM (inactive)	3.55 µM (inactive)	1.95 µM (inactive)	2.77 µM (inactive)	1.2 µM (inactive)	2.48 µM (inactive)	3.33 µM (inactive)	1.59 µM (inactive)	2.72 µM (inactive)	77.8 µM (inactive)	2.84 µM (inactive)	5.35 µM (inactive)	10.2 µM (inactive)	1.51 µM (inactive)	0.553 µM (active)	1.04 µM (active)	1.71 µM (inactive)	10.2 µM (inactive)	> 36.8 µM (inactive)
O=c1[nH]nc(-c2ccccc2)n1/N=C/c1ccc([N+](=O)[O-])cc1	> 100 µM (inactive)	6.64 µM (inactive)	10.4 µM (inactive)	10 µM (inactive)	96.2 µM (inactive)	> 100 µM (inactive)	11.2 µM (inactive)	11.4 µM (inactive)	> 100 µM (inactive)	> 100 µM (inactive)	8.43 µM (inactive)	20 µM (inactive)	> 33.2 µM (inactive)	11 µM (inactive)	> 80.4 µM (inactive)	> 100 µM (inactive)	4.74 µM (inactive)	> 100 µM (inactive)	56.1 µM (inactive)	2.94 µM (inactive)
C/C(=N/NC(=S)Nc1ccc(C)cc1)c1ccccn1	0.12 µM (active)	0.0427 µM (active)	1.26 µM (inactive)	0.719 µM (active)	0.0446 µM (active)	< 0.0132 µM (active)	0.266 µM (active)	0.0515 µM (active)	< 0.0122 µM (active)	< 0.0164 µM (active)	0.78 µM (active)	0.19 µM (active)	< 0.0154 µM (active)	0.029 µM (active)	0.0601 µM (active)	< 0.0127 µM (active)	0.125 µM (active)	1.1 µM (active)	0.794 µM (active)	0.0363 µM (active)
Nc1nc(-c2ccccc2)c(-c2ccccc2)c(-c2nc(N)nc(-c3ccccc3)c2-c2ccccc2)n1	57.9 µM (inactive)	> 100 µM (inactive)	88.7 µM (inactive)	> 100 µM (inactive)	> 100 µM (inactive)	> 100 µM (inactive)	> 100 µM (inactive)	> 100 µM (inactive)	> 100 µM (inactive)	> 100 µM (inactive)	94 µM (inactive)	> 100 µM (inactive)	> 100 µM (inactive)	> 100 µM (inactive)	63.7 µM (inactive)	> 100 µM (inactive)	> 100 µM (inactive)	75.7 µM (inactive)	> 100 µM (inactive)	> 100 µM (inactive)
Cc1nn(-c2ccccc2)c2c1C(c1cc3ccccc3nc1Cl)NC(=S)N2 (stereo not given)	14.3 µM (inactive)	33 µM (inactive)	82.2 µM (inactive)	18.2 µM (inactive)	> 100 µM (inactive)	35.5 µM (inactive)	20.8 µM (inactive)	54.2 µM (inactive)	29.4 µM (inactive)	30.1 µM (inactive)	26.3 µM (inactive)	58.5 µM (inactive)	> 100 µM (inactive)	> 100 µM (inactive)	92.7 µM (inactive)	39.5 µM (inactive)	23.4 µM (inactive)	45.7 µM (inactive)	> 100 µM (inactive)	97.5 µM (inactive)
Cc1nnc(N2C(=O)C(=Cc3ccc(Cl)cc3)N=C2c2ccc(Cl)cc2)nc1/C=C\c1ccc(N(C)C)cc1	> 100 µM (inactive)	> 100 µM (inactive)	> 100 µM (inactive)	> 100 µM (inactive)	83.6 µM (inactive)	93.8 µM (inactive)	50.8 µM (inactive)	> 100 µM (inactive)	> 100 µM (inactive)	> 100 µM (inactive)	> 100 µM (inactive)	> 100 µM (inactive)	> 100 µM (inactive)	> 100 µM (inactive)	> 100 µM (inactive)	73.3 µM (inactive)	> 100 µM (inactive)	73.1 µM (inactive)	> 100 µM (inactive)	> 100 µM (inactive)
